Experimental data as given in BindingDB's records for doi:10.1016/S0014-827X(03)00113-7 (Universit&Aagrove, 2003).
pKi: −log10 of the molar value.

Tests used:
[1] = molecular target: T1, Muscarinic acetylcholine receptor M5 (Homo sapiens, UniProt P08912)
T1 sequence (P08912 whole entry): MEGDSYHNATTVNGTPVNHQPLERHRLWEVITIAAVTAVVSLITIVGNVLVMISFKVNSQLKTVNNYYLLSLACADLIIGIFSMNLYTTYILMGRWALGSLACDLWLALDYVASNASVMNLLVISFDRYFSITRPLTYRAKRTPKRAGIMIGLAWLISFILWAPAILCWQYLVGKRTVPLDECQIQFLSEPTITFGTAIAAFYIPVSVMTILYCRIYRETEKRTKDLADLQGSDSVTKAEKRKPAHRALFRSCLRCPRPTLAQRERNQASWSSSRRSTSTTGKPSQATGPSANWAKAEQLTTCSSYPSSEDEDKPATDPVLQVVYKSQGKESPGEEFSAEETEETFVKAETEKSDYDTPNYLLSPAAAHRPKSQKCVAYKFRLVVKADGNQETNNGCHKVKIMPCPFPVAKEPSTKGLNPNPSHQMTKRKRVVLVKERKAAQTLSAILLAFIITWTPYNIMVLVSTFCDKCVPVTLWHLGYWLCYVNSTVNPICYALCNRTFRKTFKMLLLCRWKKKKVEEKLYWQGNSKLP

[2] = molecular target: T2, Muscarinic acetylcholine receptor M2 (Homo sapiens, UniProt P08172)
T2 sequence (P08172 whole entry): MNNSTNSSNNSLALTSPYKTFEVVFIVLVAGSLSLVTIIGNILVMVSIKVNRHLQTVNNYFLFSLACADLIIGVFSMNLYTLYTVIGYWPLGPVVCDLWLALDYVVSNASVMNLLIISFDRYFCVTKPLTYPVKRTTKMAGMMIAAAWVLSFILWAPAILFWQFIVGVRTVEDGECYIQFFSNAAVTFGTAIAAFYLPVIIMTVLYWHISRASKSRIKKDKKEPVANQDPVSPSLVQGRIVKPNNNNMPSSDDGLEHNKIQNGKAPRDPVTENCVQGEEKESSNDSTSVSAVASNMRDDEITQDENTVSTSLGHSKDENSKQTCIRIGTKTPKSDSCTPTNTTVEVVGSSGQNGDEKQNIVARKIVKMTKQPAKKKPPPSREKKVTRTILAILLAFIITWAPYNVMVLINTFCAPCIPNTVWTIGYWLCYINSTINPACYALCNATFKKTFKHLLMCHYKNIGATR

[3] = molecular target: Muscarinic acetylcholine receptor M3 (Homo sapiens, UniProt P20309)
Sequence of Muscarinic acetylcholine receptor M3 (P20309 whole entry): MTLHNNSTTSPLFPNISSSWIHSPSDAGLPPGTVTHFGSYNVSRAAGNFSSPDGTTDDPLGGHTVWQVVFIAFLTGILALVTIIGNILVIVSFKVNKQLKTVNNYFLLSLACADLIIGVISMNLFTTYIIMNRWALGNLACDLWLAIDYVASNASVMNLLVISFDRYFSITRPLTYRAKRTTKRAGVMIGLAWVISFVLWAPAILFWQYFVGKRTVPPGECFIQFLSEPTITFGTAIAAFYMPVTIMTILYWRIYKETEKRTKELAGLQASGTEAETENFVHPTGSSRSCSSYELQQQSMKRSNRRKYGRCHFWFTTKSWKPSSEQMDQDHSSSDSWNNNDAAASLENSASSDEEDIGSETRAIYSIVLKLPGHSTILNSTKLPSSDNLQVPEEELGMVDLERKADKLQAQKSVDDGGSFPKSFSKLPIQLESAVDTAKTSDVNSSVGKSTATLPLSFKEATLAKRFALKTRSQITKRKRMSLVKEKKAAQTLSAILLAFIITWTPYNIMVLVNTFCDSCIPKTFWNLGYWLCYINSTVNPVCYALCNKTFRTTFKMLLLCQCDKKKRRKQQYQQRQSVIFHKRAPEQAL

| Structure (SMILES) | pKi [1] | pKi [2] | pKi [3] |
| --- | --- | --- | --- |
| Cc1n(CC#CCN2OCCC2=O)cc[n+]1C [2-[4-(2,3-Dimethyl-1H-imidazolium-1-yl)-2-butynyl]isoxazolidin-3-one iodide] | 6.88 | 6.56 | 7.12 |
| Cc1nccn1CC#CCOc1ccon1 [3-[4-(2-Methyl-1H-imidazol-1-yl)-2-butynyl]oxyisoxazole sesquifumarate] | 6.68 | 6.55 | 6.96 |
| Cc1n(CC#CCOc2ccon2)cc[n+]1-c1ccc(Br)cc1 [NSC_0] | 7.22 | 6.95 | 7.77 |
| Cc1nccn1CC#CCN1OCCC1=O [NSC_0] | 9.29 | 7.14 | 6.99 |

The next lines start with the values.

| pKi [1] | pKi [2] | pKi [3] | Structure (SMILES) |
| --- | --- | --- | --- |
| 8.21 | 8.44 | 8.60 | Cc1nccn1CC#CCOC1=NOCC1 [3-[4-(2-Methyl-1H-imidazol-1-yl)-2-butynyl]oxy-delta2-isoxazoline sesquifumarate] |
| 7.29 | 7.03 | 8.20 | Cc1n(CC#CCOC2=NOCC2)cc[n+]1C [NSC_0] |
